In ChEMBL document CHEMBL4428091, “Design and optimization of (3-aryl-1H-indazol-6-yl)spiro[cyclopropane-1,3'-indolin]-2'-ones as potent PLK4 inhibitors with oral antitumor efficacy” (Bioorg Med Chem Lett, 2016):

Tests used:
[1] = AUC in rat at 1 mg/kg, iv; assay type: ADME, organism-based; conditions: in vivo
[2] = AUC in rat at 5 mg/kg, po; assay type: ADME, organism-based; conditions: in vivo
[3] = Cmax in mouse at 25 mg/kg, po; assay type: ADME, organism-based; parameters: dose 25 mg/kg, route oral; conditions: in vivo, BLD = below limit of detection
[4] = Lipophilicity, log D of the compound at pH 7.4; assay type: physicochemical; conditions: buffer
CYP2C9 = CYP2C9 (Homo sapiens, UniProt P11712); test: Inhibition of CYP2C9 (unknown origin) at 1 uM; assay type: ADME
[5] = Half life in mouse microsomes; assay type: ADME, Microsome
[6] = Clearance in rat at 1 mg/kg, iv; assay type: ADME, organism-based; conditions: in vivo
[7] = Half life in rat at 1 mg/kg, iv; assay type: ADME, organism-based; conditions: in vivo
[8] = Half life in human microsomes; assay type: ADME, Microsome
CYP2C19 = CYP2C19 (Homo sapiens, UniProt P33261); test: Inhibition of CYP2C19 (unknown origin) at 1 uM; assay type: ADME
[9] = Oral bioavailability in rat at 5 mg/kg; assay type: ADME, organism-based; conditions: in vivo
CYP3A4 = CYP3A4 (Homo sapiens, UniProt P08684); test: Inhibition of CYP3A4 (unknown origin) at 1 uM; assay type: ADME
MDA-MB-468 = test: Growth inhibition of human MDA-MB-468 cells; assay type: functional
[10] = biological target: T1, Receptor-type tyrosine-protein kinase FLT3 (Homo sapiens, UniProt P36888); test: Inhibition of FLT3 (unknown origin)
T1 sequence (P36888 whole entry): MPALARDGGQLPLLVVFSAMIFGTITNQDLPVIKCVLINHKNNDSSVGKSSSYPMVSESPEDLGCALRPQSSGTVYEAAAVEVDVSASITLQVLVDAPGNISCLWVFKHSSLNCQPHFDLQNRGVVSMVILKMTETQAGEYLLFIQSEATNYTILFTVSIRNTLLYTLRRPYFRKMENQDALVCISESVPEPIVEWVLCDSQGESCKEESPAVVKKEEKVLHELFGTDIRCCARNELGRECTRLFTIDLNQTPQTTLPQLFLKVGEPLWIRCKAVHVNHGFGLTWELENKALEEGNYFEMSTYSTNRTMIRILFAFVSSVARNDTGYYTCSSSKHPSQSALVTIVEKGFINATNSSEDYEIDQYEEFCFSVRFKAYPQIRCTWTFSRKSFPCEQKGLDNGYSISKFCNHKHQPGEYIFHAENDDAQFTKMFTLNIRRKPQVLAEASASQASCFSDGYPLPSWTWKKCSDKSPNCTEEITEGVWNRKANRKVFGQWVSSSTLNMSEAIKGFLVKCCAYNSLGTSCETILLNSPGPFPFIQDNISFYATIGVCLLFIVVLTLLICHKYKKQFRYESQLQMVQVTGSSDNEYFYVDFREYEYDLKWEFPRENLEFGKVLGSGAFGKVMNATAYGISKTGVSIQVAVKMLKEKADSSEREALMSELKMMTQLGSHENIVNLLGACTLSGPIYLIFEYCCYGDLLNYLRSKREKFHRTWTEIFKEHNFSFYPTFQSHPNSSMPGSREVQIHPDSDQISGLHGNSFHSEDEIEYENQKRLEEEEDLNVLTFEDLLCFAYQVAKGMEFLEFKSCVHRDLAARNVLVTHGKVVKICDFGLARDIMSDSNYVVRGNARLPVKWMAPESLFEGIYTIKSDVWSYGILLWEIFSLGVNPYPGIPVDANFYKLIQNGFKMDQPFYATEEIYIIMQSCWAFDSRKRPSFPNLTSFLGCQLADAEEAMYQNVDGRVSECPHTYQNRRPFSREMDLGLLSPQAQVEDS

Aurora kinase A = biological target: T2, Aurora kinase A (Homo sapiens, UniProt O14965); test: Inhibition of AURKA (unknown origin)
T2 sequence (O14965 whole entry): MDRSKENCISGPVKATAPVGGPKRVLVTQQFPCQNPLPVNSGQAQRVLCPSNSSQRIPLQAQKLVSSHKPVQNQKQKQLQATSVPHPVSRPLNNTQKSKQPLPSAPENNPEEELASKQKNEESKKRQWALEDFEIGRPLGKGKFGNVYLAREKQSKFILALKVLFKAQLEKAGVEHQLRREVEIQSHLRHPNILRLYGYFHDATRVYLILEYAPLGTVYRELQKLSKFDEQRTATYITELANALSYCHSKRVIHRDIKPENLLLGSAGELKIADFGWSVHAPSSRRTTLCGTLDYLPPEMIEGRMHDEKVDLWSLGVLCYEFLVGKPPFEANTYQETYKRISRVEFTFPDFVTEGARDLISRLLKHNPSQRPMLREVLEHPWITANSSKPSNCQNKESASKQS

[11] = biological target: Vascular endothelial growth factor receptor 2 (Homo sapiens, UniProt P35968); test: Inhibition of KDR (unknown origin)
[12] = biological target: T3, Serine/threonine-protein kinase PLK4 (Homo sapiens, UniProt O00444); test: Inhibition of PLK4 (unknown origin)
T3 sequence (O00444 whole entry): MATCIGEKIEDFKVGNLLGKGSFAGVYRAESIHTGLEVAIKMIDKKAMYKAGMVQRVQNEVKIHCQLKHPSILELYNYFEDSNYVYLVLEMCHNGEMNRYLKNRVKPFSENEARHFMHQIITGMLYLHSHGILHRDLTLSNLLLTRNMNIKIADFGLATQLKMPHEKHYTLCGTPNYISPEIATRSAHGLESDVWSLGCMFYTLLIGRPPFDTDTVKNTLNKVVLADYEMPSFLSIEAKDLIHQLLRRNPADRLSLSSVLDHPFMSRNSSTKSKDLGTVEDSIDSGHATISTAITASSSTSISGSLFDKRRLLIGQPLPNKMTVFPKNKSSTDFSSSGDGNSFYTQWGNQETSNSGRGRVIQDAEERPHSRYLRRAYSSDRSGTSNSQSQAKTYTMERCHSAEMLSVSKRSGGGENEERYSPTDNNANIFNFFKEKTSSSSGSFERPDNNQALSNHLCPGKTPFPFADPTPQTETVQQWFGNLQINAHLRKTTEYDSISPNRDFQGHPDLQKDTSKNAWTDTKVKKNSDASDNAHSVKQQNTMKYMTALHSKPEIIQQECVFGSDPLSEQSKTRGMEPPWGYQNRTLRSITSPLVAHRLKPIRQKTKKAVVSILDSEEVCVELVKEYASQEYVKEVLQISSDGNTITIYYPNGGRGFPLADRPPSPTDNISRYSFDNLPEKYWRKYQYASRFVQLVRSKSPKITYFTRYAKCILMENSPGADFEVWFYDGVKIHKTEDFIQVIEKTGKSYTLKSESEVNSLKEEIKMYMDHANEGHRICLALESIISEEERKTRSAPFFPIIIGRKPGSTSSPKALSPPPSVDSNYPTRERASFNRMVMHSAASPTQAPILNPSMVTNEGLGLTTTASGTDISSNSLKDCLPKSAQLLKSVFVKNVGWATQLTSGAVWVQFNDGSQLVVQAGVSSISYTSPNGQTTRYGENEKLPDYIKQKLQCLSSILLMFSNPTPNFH

HCC1954 = test: Growth inhibition of human HCC1954; assay type: functional
MCF7 = test: Growth inhibition of human MCF7; assay type: functional
Aurora kinase B = Aurora kinase B (Homo sapiens, UniProt Q96GD4); test: Inhibition of AURKB (unknown origin)
Chain of Aurora kinase B (Q96GD4 whole entry): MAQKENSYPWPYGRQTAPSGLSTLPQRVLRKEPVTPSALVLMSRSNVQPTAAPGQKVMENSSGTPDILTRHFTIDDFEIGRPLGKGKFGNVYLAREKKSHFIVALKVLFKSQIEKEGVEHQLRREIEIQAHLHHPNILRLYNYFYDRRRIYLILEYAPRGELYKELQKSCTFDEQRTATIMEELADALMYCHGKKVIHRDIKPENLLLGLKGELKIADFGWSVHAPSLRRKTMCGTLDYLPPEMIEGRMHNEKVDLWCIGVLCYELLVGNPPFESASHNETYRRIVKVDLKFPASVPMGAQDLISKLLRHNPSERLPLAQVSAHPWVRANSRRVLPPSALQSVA

Chain of CYP3A4 (P08684 whole entry): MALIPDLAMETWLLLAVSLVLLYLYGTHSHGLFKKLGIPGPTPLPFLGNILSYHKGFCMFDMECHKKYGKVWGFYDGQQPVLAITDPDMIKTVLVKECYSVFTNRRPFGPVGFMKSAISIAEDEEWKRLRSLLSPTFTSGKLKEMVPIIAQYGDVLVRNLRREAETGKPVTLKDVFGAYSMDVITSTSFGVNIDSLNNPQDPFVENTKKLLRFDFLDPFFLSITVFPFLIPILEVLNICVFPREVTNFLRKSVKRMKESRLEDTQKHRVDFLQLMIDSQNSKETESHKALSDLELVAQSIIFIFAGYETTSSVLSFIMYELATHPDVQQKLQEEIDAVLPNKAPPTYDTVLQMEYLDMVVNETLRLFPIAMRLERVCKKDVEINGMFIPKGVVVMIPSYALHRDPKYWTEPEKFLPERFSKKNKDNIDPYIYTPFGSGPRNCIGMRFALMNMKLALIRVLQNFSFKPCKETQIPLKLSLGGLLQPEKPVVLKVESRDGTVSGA
Chain of CYP2C19 (P33261 whole entry): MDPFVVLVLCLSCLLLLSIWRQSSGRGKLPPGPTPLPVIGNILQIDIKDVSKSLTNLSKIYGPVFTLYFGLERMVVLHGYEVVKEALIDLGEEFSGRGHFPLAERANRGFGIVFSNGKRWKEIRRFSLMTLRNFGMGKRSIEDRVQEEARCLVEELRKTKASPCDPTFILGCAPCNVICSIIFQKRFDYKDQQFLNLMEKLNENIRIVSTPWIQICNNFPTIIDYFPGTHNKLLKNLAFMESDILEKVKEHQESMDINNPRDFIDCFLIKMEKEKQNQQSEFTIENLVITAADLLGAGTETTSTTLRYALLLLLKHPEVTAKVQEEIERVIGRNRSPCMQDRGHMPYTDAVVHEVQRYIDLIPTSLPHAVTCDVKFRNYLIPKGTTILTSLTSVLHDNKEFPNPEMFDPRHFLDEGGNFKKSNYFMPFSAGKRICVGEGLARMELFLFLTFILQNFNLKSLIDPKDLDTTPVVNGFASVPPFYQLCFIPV
Chain of CYP2C9 (P11712 whole entry): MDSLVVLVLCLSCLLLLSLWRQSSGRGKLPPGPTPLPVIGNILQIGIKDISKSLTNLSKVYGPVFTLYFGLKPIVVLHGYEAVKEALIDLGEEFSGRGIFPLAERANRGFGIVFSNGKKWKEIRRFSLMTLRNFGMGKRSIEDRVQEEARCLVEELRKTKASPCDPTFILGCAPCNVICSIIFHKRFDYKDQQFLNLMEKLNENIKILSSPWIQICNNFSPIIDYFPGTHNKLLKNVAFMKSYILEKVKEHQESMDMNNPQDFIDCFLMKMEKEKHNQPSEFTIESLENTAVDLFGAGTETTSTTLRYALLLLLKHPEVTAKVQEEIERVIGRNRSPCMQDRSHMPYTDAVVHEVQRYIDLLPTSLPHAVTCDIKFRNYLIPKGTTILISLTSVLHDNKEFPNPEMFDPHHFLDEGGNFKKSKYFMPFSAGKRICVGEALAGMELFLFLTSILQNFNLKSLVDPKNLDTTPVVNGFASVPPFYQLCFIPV
Chain of Vascular endothelial growth factor receptor 2 (P35968 whole entry): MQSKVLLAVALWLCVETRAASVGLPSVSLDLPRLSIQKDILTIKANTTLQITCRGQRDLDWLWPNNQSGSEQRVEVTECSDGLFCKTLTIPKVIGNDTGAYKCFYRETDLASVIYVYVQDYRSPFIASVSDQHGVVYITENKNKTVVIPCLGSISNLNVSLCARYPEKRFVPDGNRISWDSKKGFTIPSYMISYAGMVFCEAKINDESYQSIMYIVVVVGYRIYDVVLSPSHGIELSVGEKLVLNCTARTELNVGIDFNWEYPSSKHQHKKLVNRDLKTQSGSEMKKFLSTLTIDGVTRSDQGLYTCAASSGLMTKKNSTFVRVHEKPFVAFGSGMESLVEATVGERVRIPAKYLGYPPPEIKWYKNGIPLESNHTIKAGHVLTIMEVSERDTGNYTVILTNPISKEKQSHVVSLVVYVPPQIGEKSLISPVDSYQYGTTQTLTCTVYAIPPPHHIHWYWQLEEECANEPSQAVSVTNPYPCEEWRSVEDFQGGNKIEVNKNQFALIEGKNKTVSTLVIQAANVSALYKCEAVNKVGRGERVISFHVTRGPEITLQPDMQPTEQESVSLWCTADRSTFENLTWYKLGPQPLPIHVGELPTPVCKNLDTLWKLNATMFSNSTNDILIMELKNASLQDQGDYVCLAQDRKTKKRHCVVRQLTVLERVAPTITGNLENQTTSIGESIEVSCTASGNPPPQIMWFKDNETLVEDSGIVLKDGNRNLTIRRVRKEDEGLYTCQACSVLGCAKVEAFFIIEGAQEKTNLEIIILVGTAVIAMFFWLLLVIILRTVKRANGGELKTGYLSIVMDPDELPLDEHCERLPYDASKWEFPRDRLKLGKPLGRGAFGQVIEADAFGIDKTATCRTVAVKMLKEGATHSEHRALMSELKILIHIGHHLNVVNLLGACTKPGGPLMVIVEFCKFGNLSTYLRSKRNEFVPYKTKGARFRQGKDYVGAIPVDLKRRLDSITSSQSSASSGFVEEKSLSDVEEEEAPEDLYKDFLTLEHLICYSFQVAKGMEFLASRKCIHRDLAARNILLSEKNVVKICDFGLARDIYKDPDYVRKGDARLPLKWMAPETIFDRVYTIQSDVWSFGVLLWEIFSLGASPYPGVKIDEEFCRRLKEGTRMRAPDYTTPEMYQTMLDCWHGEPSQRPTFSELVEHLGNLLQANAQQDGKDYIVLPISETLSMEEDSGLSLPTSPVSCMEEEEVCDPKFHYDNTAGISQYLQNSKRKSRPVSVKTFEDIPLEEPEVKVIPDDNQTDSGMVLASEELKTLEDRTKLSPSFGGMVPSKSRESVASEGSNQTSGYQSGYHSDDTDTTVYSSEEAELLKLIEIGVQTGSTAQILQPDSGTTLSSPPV

CN1CCN(c2ccc(/C=C/c3n[nH]c4cc(/C=C5/C(=O)Nc6ccccc65)ccc34)cn2)CC1
AUC [1]: 170 ng·h/mL
AUC ([2]; BLD = below limit of detection): Bld
Cmax [3]: Bld
logD [4]: 4.5
inhibition at 1 µM (CYP2C9): 67%
half-life [5]: 4 min
clearance [6]: 107 mL/min/kg
half-life [7]: 306 min
half-life [8]: 24 min
inhibition at 1 µM (CYP2C19): 83%
bioavailability [9]: < 1%
inhibition at 1 µM (CYP3A4): 55%

O=C1Nc2ccccc2/C1=C\c1ccc2cn[nH]c2c1
GI50 (MDA-MB-468): 4.6 µM
IC50 [10]: 0.049 µM

COc1ccc2c(c1)[C@]1(C[C@H]1c1ccc3c(/C=C/c4ccc(N5CCN(C)CC5)nc4)n[nH]c3c1)C(=O)N2
AUC [1]: 330 ng·h/mL
AUC ([2]; read-out: AUC): 250 ng·h/mL
logD [4]: 4.2
inhibition at 1 µM (CYP2C9): 73%
half-life [5]: 9 min
clearance [6]: 51.7 mL/min/kg
half-life [7]: 144 min
half-life [8]: 16 min
inhibition at 1 µM (CYP2C19): 93%
bioavailability [9]: 15%
inhibition at 1 µM (CYP3A4): 76%

COc1ccc2c(c1)C(=Cc1ccc3c(-c4ccc(N5CCN(C)CC5)nc4)n[nH]c3c1)C(=O)N2
IC50 (Aurora kinase A): 0.7 µM
AUC [1]: 94 ng·h/mL
AUC ([2]; read-out: AUC): 24 ng·h/mL
IC50 [11]: 0.63 µM
GI50 (MDA-MB-468): 1.3 to 3.7 µM
IC50 [12]: 0.0024 µM
GI50 (HCC1954): 5.9 µM
GI50 (MCF7): 5.4 µM
logD [4]: 3.5
IC50 [10]: 0.028 µM
inhibition at 1 µM (CYP2C9): 60%
half-life [5]: 4 min
clearance [6]: 178 mL/min/kg
half-life [7]: 78 min
half-life [8]: 13 min
inhibition at 1 µM (CYP2C19): 64%
IC50 (Aurora kinase B): 0.035 µM
bioavailability [9]: 2%
inhibition at 1 µM (CYP3A4): 19%

CN1CCN(c2ccc(-c3n[nH]c4cc(C=C5C(=O)Nc6ccccc65)ccc34)cn2)CC1
GI50 (MDA-MB-468): 1.3 µM
IC50 [12]: 0.013 µM
IC50 [10]: 0.017 µM

O=C1Nc2ccccc2C1=Cc1ccc2c(-c3ccc[nH]3)n[nH]c2c1
GI50 (MDA-MB-468): 7.7 µM
IC50 [12]: 0.064 µM
IC50 [10]: 0.05 µM

O=C1Nc2ccccc2C1=Cc1ccc2c(-c3cc4ccccc4[nH]3)n[nH]c2c1
IC50 [12]: 0.54 µM

O=C1Nc2ccccc2/C1=C\c1ccc2c(-c3nccs3)n[nH]c2c1
IC50 [12]: 0.49 µM
IC50 [10]: 0.072 µM

COc1ccc2c(c1)[C@@]1(C[C@@H]1c1ccc3c(-c4ccc(N5CCN(C)CC5)nc4)n[nH]c3c1)C(=O)N2
IC50 (Aurora kinase A): > 1 µM
IC50 [11]: > 50 µM
GI50 (MDA-MB-468): 3.7 µM
IC50 [12]: 0.03 µM
GI50 (HCC1954): 5.9 µM
GI50 (MCF7): 5.4 µM
IC50 [10]: 6.5 µM
IC50 (Aurora kinase B): 2.1 µM

CN1CCN(c2ccc(-c3n[nH]c4cc([C@@H]5C[C@@]56C(=O)Nc5ccc(F)cc56)ccc34)cn2)CC1
GI50 (MDA-MB-468): 0.6 µM
IC50 [10]: 0.098 µM

COc1ccc2c(c1)[C@]1(C[C@H]1c1ccc3c(-c4ccc(N5CCNCC5)cc4)n[nH]c3c1)C(=O)N2
IC50 (Aurora kinase A): > 1 µM
Cmax [3]: Bld
IC50 [11]: 5.6 µM
GI50 (MDA-MB-468): < 0.01 µM
IC50 [12]: 0.00045 µM
GI50 (HCC1954): 3.6 µM
GI50 (MCF7): < 0.01 µM
logD [4]: 2.6
IC50 [10]: 0.044 µM
half-life [5]: > 60 min
half-life [8]: 59 min
IC50 (Aurora kinase B): 0.0069 µM

O=C1Nc2ccccc2C1=Cc1ccc2c(-c3ccncc3)n[nH]c2c1
GI50 (MDA-MB-468): 9.9 µM
IC50 [12]: 0.22 µM
IC50 [10]: 0.12 µM

O=C1Nc2ccccc2C1=Cc1ccc2c(-c3cccnc3)n[nH]c2c1
GI50 (MDA-MB-468): 5 µM
IC50 [12]: 0.029 µM
IC50 [10]: 0.027 µM

COc1ccc2c(c1)[C@]1(C[C@H]1c1ccc3c(-c4ccnc(N5CCN(C)CC5)c4)n[nH]c3c1)C(=O)N2 (racemic)
GI50 (MDA-MB-468): 0.38 µM
IC50 [12]: 0.0021 µM
IC50 [10]: 0.32 µM

COc1ccc2c(c1)[C@]1(C[C@H]1c1ccc3c(-c4ccc(N5CCC(O)CC5)nc4)n[nH]c3c1)C(=O)N2 (racemic)
GI50 (MDA-MB-468): 0.89 µM
IC50 [10]: 0.24 µM

COc1ccc2c(c1)[C@]1(C[C@H]1c1ccc3c(-c4ccc(N5CCN(C)CC5)nc4)n[nH]c3c1)C(=O)N2 (racemic)
GI50 (MDA-MB-468): 0.12 µM
IC50 [12]: 0.001 µM
IC50 [10]: 0.26 µM

CN1CCN(c2ccc(-c3n[nH]c4cc([C@@H]5C[C@@]56C(=O)Nc5ccccc56)ccc34)cn2)CC1 (racemic)
GI50 (MDA-MB-468): 0.77 µM
IC50 [12]: 0.054 µM
IC50 [10]: 0.2 µM

COc1ccc2c(c1)[C@]1(C[C@H]1c1ccc3c(-c4ccc(N5CCOCC5)nc4)n[nH]c3c1)C(=O)N2 (racemic)
GI50 (MDA-MB-468): 0.67 µM
IC50 [10]: 1.2 µM
